Experimental data published in patent US20230027066A1 (Urovant Sciences GmbH, priority 2019, published 2023).

Tested on: men and women with overactive bladder
Test: Phase 3 study of vibegron 75 mg vs placebo and tolterodine ER 4 mg, 12 weeks, efficacy (voiding and urine volume diary)
Assay type: in vivo, human
Conditions: for First 50% Reduction in Urgency Episodes, Events / First 100% Reduction in UUI Episodes, Events: events of Events/Censored
Experimental: Enrollment of patients included individuals with OAB Wet (those with UUI, the involuntary loss of urine accompanied by urgency) and OAB Dry (those without UUI). A total of 1,518 patients were randomized across 215 study sites into one of three groups for a 12-week treatment period.
The study consisted of a Screening Period (1 to 5 weeks), a single-blind Run-in Period (2 weeks), a randomized double-blind Treatment Period (12 weeks), and a Follow-up Period (4 weeks).
Tolterodine ER 4 mg was the active control. […] Between the Baseline and Week 12 Visits, patients had study assessments at Week 4 and Week 8.
The Patient Voiding Diary was used by participants (via the eDiary or paper Diary) to record the frequency of daily OAB symptoms including all micturitions, urgency, incontinence, and main reason for incontinence by selecting the respective box for each symptom occurring during the course of a given day and night.
Urine volume data were collected separately by patients using the Urine Volume component of the eDiary, or the paper Urine Volume Chart. The Urine Volume Chart is a tool used in clinical practice and clinical investigation to assess voiding functions over a 24-hour period and is regarded as a useful instrument in the investigation of patients with voiding symptoms. Urine volume may be collected during any one (1) of the 7 Diary Days prior to the visit, and it should be recorded for ˜24 hours starting from the time the patient gets up for the day and continues until the time the patient gets up for the day on the next day.
For the purpose of this study, the number of micturitions was defined as the number of times a patient has voided in the toilet as indicated on the Patient Voiding Diary. Average daily micturitions were calculated using the daily entries in the Patient Voiding Diary, which was completed over the 7 days prior to each study visit. Average daily number of micturitions were calculated as the total number of micturitions that occurred on a Complete Diary Day divided by the number of Complete Diary Days in the Patient Voiding Diary. A complete diary day required confirmation by the patient in the Patient Voiding Diary that all voids and leakages had been recorded for the diary day. Baseline was defined as the average number of micturitions occurring during the last evaluable diary prior to the Baseline Visit.
The number of UUI episodes was defined as the number of times a patient had checked “urge” as the reason for accidental urine leakage. Average daily UUI episodes at each study visit were calculated in the same manner as described above for the micturition endpoint. The UUI endpoint were analyzed using only OAB Wet patients.
For the analysis of the co-primary endpoints (change from baseline in average number of daily micturitions at Week 12 and change from baseline in average number of daily urge urinary incontinence episodes at Week 12, and placebo adjustment of each), a mixed model for repeated measure (MMRM) with restricted maximum likelihood estimation was used. This model corrects for dropout and accounts for the fact that measurements taken on the same patient over time tend to be correlated by using all available information on patients within the same covariate set to derive an estimate of the treatment effect for a dropout-free population. The analysis model for each efficacy endpoint includes terms for treatment, visit, OAB Type (Wet vs Dry), Sex (Female vs Male), Region (US vs Rest of World), baseline score, and interaction of visit by treatment.
Primary inferences were drawn from treatment differences for the changes from baseline derived from the MMRM models at Week 12. As part of secondary objectives, the treatment differences for each post baseline visit were also derived using the same MMRM model. […]

[1] = Week 12, Age ≥ 75 years (posthoc analysis)
[2] = Week 12, No Prior ACH Use in last 12 Mo.
[3] = Week 12, No Prior B3 Agonist Use in last 12 Mo.
[4] = Week 12, Prior ACH Use in last 12 Mo.
[5] = Week 12, Prior B3 Agonist Use in last 12 Mo.

## O=C(Nc1ccc(C[C@@H]2CC[C@H]([C@H](O)c3ccccc3)N2)cc1)[C@@H]1CCc2nccc(=O)n21 [Vibegron, (6S)-N-[4-[[(2S,5R)−5-[(R)-hydroxy(phenyl)methyl]pyrrolidin−2-yl]methyl]phenyl]−4-oxo−7,8-dihydro−6H-pyrrolo[1,2-a]pyrimidine−6-carboxamide]
Week 8
  Change from baseline in average volume voided per micturition, LS Mean (SE): 21.4 (3.20) mL
  Estimated Incidence of Subjects with 50% Decrease from Baseline (urgency episodes): 31.8
  Estimated Incidence of Subjects with 100% Decrease from Baseline (UUI episodes): 21.4
  Total Incontinence, Active - Placebo LS Mean Difference (SE): −0.7 (0.15)
  Urgency episodes, Active - Placebo LS Mean Difference: −0.8
  First 50% Reduction in Urgency Episodes, Events: 166/360
  First 100% Reduction in UUI Episodes, Events: 86/317
Week 12
  Average Daily Number of Total Incontinence, Mean (SD): 1.89 (3.120)
  Average daily number of urgency episodes, Mean (SD): 5.29 (4.500)
  Average volume voided per micturition, Active - Placebo LS Mean Difference: 21.2 mL
  Average volume voided per micturition, Week 12 Mean (SD): 175.3 (81.78) mL
  Change from Baseline in Average Daily Number of Total Incontinence, LS Mean (SE): −2.3 (0.15)
  Change from baseline in average daily number of urgency episodes, LS Mean: −2.7
  Change from baseline in average volume voided per micturition, LS Mean (SE): 23.5 (3.26) mL
  Estimated Incidence of Subjects with 50% Decrease from Baseline (urgency episodes): 43.8
  Estimated Incidence of Subjects with 100% Decrease from Baseline (UUI episodes): 30.0
  Total Incontinence, Active - Placebo LS Mean Difference (SE): −0.7 (0.16)
  Urgency episodes, Active - Placebo LS Mean Difference: −0.7
  First 50% Reduction in Urgency Episodes, Events: 225/301
  First 100% Reduction in UUI Episodes, Events: 119/284
Week 12, <65 yrs
  Micturitions: Week 12 CFB Mean (descriptive statistics): −1.99
Week 12, African American
  UUI: Week 12 CFB Mean (descriptive statistics): −1.61
  UUI: Week 12 CFB Median: −1.26
Week 12, Age < 65 years
  Micturitions: Week 12 CFB LS Mean (95% CI): −1.7
  UUI: Week 12 CFB LS Mean (95% CI): −2.0
  UUI: Week 12 CFB Mean (descriptive statistics): −2.08
Week 12, Age ≥ 65 years
  Micturitions: Week 12 CFB LS Mean (95% CI): −1.9
  UUI: Week 12 CFB LS Mean (95% CI): −2.0
  UUI: Week 12 CFB Mean (descriptive statistics): −1.94
[1]
  Micturitions: Week 12 CFB LS Mean (95% CI): −2.1
  UUI: Week 12 CFB LS Mean (95% CI): −2.0
Week 12, Asian
  UUI: Week 12 CFB Mean (descriptive statistics): −0.07
  UUI: Week 12 CFB Median: 0.00
Week 12, Females
  Micturitions: Week 12 CFB LS Mean (95% CI): −1.9
  Micturitions: Week 12 CFB Mean (descriptive statistics): −2.05
  UUI: Week 12 CFB LS Mean (95% CI): −2.1
  UUI: Week 12 CFB Mean (descriptive statistics): −2.10
Week 12, Males
  Micturitions: Week 12 CFB LS Mean (95% CI): −1.7
  Micturitions: Week 12 CFB Mean (descriptive statistics): −1.97
  UUI: Week 12 CFB LS Mean (95% CI): −1.6
  UUI: Week 12 CFB Mean (descriptive statistics): −1.35
Week 12, Males with BPH
  Micturitions: Week 12 CFB Mean (descriptive statistics): −1.50
  UUI: Week 12 CFB Mean (descriptive statistics): −1.09
Week 12, Males without BPH
  Micturitions: Week 12 CFB Mean (descriptive statistics): −2.26
  UUI: Week 12 CFB Mean (descriptive statistics): −1.51
[2]
  Micturitions: Week 12 CFB Mean (descriptive statistics): −2.05
  UUI: Week 12 CFB Mean (descriptive statistics): −2.12
[3]
  Micturitions: Week 12 CFB Mean (descriptive statistics): −2.01
  UUI: Week 12 CFB Mean (descriptive statistics): −2.03
Week 12, Non-White
  Micturitions: Week 12 CFB LS Mean (95% CI): −1.7
  Micturitions: Week 12 CFB Mean (descriptive statistics): −2.18
  UUI: Week 12 CFB LS Mean (95% CI): −1.3
  UUI: Week 12 CFB Mean (descriptive statistics): −1.14
  UUI: Week 12 CFB Median: −1.00
Week 12, Overall
  Micturitions: Week 12 CFB LS Mean (95% CI): −1.8
  Micturitions: Week 12 CFB Mean (descriptive statistics): −2.04
  UUI: Week 12 CFB LS Mean (95% CI): −2.0
  UUI: Week 12 CFB Mean (descriptive statistics): −2.01
[4]
  Micturitions: Week 12 CFB Mean (descriptive statistics): −1.97
  UUI: Week 12 CFB Mean (descriptive statistics): −1.46
[5]
  Micturitions: Week 12 CFB Mean (descriptive statistics): −2.83
  UUI: Week 12 CFB Mean (descriptive statistics): −1.64
Week 12, Region: Non-US
  Micturitions: Week 12 CFB LS Mean (95% CI): −1.8
  Micturitions: Week 12 CFB Mean (descriptive statistics): −2.26
  UUI: Week 12 CFB LS Mean (95% CI): −2.4
  UUI: Week 12 CFB Mean (descriptive statistics): −2.60
Week 12, Region: US
  Micturitions: Week 12 CFB LS Mean (95% CI): −1.9
  Micturitions: Week 12 CFB Mean (descriptive statistics): −2.01
  UUI: Week 12 CFB LS Mean (95% CI): −1.9
  UUI: Week 12 CFB Mean (descriptive statistics): −1.92
Week 12, White
  Micturitions: Week 12 CFB LS Mean (95% CI): −1.8
  Micturitions: Week 12 CFB Mean (descriptive statistics): −2.01
  UUI: Week 12 CFB LS Mean (95% CI): −2.2
  UUI: Week 12 CFB Mean (descriptive statistics): −2.23
  UUI: Week 12 CFB Median: −1.78
Week 12, co-primary endpoint
  Micturitions, Week 12 LS Mean Change from Baseline (Placebo-Adjusted): −0.5
  UUI Episodes, Week 12 LS Mean Change from Baseline (Placebo-Adjusted): −0.6
Week 12, secondary endpoint
  Total Incontinence Episodes, Week 12 LS Mean Change from Baseline (Placebo-Adjusted): −0.7
  Urgency Episodes, Week 12 LS Mean Change from Baseline (Placebo-Adjusted): −0.7
Week 12, subpopulation Age ≥65 years
  Micturitions, change at Week 12, mean (SD): −2.10 (2.83)
